What was measured:
[1] = system: mitochondrial transfer from BM-MSC to UCB iTregs; experiment: Mitochondrial transfer from mt-GFP lentivirus transduced MSC into iTregs, flow cytometry; type: cell-based, human
TNT formation = settings: Sáenz-de-Santa-María et al., Oncotarget, 2017; cited from earlier work
[2] = system: mitochondrial transfer from BM-MSC to UCB iTregs; experiment: Mitochondrial transfer from BM-MSC into UCB iTregs, MitoTracker Red FM by confocal microscopy; type: cell-based, human
[3] = system: mitochondrial transfer from hBM-MSC to iTreg; experiment: Mitochondrial transfer from BM-MSC into iTregs, MitoTracker green by flow cytometry; type: cell-based, human; settings: Cytochalasin B 350 nM treated BM-MSC, 24 h, n=6; Mock 2208±122.1
[4] = system: BACH2, SENP3, Foxp3 in iTreg; experiment: iTreg Foxp3, BACH2 and SENP3 protein expression; type: cell-based, human; settings: after cytochalasin B treatment

Nc1ncnc2c1ncn2[C@@H]1O[C@H](COP(=O)(O)CP(=O)(O)O)[C@@H](O)[C@H]1O [Adenosine 5′-(α,(β-methylene)diphosphate, Adenosine 5′-(α,β-methylene)diphosphate]
mitochondrial transfer from BM-MSC to UCB iTregs (mt-GFP+ iTregs) [1]: significantly blocks mitochondrial transfer

C=C1[C@@H](C)[C@H]2[C@H](Cc3ccccc3)NC(=O)[C@]23[C@H](OC(C)=O)/C=C/[C@@](C)(O)C(=O)[C@@H](C)C/C=C/[C@H]3[C@@H]1O [Cytocalasin D, Cytochalasin D]
TNT formation (TNT formation): significant reduction

CC(=O)N[C@@H](CS)C(=O)O [N-acetylcysteine]
mitochondria uptake by Treg (confocal) ([2]; 200 uM added to BM-MSC+iTreg culture, 24-36 h): minimally reduced

C=C(C)[C@H]1Cc2c(ccc3c2O[C@@H]2COc4cc(OC)c(OC)cc4[C@@H]2C3=O)O1 [rotenone]
transfer of mitochondria into iTregs from rotenone treated MSC ([1]; rotenone treated mt-GFP MSC platform, 72 hrs): do not transfer

Cytochalasin B
mitochondrial transfer from MSC to UCB iTregs (MitoTracker+ iTregs, confocal) ([2]; 350 nM, 24 h): significantly blocks mitochondrial transfer
mitochondrial transfer from hBM-MSC to iTreg (MitoTracker MFI) [3]: 923.8±89 MFI
iTreg BACH2 protein expression [4]: dramatically decreased
iTreg SENP3 protein expression [4]: no significant effect
